This note sets out measurements from patent US12145915B1 (priority 2023, dated 2024).

By melting point is commonly meant the temperature, or range, at which the solid turns liquid.

≈ marks a conversion by molar mass, not a printed value.

The subject of series [1] is Mycobacterium tuberculosis H37Rv (ATCC: 25177). Briefly: Resazurin Microplate Assay (REMA), MIC against H37Rv strain. The format is cell-based. Conditions: 192 h, read-out: Anti-tubercular activity against Mycobacterium tuberculosis (μg/mL) H37Rv (MIC). A general note: Resazurin is reduced to fluorescent resorufin, in cell work by metabolically active cells.

In turn, `Cc1nc(-c2ccc(OCC(C)C)c(C#N)c2)sc1C(=O)N/N=C/c1ccc([N+](=O)[O-])o1` displayed a melting point of 228 to 230 °C.

On to `Cc1nc(-c2ccc(OCC(C)C)c(C#N)c2)sc1C(=O)N/N=C/c1ccc(F)c(Oc2ccccc2)c1` [KNV-TZL1, (E)-2-(3-Cyano-4-isobutoxyphenyl)-N-(4-fluoro-3-phenoxybenzylidene)-4-methylthiazole-5-carbohydrazide], for which the melting point lay in the range of 138 to 140 °C. Besides, the MIC in series [1] turned out to be 8 µg/mL (≈ 15.1 µM).

`COc1cc(/C=N/NC(=O)c2sc(-c3ccc(OCC(C)C)c(C#N)c3)nc2C)ccc1O` [KNV-TZL2, (E)-2-(3-Cyano-4-isobutoxyphenyl)-N-(4-hydroxy-3-methoxybenzylidene)-4-methylthiazole-5-carbohydrazide] returned a melting point of 230 to 232 °C. Moreover, the MIC in series [1] stood at 16 µg/mL (≈ 34.4 µM).
